For this experiment, the target named is PARP7 (Homo sapiens (Human), UniProt Q7Z3E1). The experiment can be described thus: Enzymatic assay for inhibition of PARP7: TR-FRET displacement of biotinylated Probe A from the TIPARP active site. It is filed as binding. The note with it: Table A-1. Summed up: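 Percent inhibition derives from the ratio of 665 to 615 nm emission, which reports how much Probe A remains bound to TIPARP. Plates sat 30 min at 25° C before the time-resolved read (320 nm excitation).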
PARP7, sequence (Q7Z3E1 whole entry): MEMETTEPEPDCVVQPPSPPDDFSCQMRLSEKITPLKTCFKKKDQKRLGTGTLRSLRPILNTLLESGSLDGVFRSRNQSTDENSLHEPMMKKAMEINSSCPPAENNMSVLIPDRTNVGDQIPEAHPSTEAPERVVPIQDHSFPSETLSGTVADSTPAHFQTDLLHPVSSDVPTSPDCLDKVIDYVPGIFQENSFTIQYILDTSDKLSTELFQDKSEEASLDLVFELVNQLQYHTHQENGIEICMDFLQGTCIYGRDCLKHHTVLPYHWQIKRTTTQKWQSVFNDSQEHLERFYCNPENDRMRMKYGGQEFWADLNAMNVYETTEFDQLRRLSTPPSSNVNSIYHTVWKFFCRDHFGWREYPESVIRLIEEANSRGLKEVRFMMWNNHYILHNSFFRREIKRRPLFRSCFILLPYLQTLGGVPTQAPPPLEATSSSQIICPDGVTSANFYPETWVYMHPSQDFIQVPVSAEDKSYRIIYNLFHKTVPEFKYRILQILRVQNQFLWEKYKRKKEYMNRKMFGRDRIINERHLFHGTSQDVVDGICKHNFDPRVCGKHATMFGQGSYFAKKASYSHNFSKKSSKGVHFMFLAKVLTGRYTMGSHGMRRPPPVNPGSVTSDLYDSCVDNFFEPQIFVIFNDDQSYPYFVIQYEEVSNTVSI
A general note: Time-resolved FRET reads energy transfer from a long-lived donor to a nearby acceptor.

The source of these data is US10550105B2 (Ribon Therapeutics Inc., priority 2018, dated 2020).

For orientation: IC50 means the midpoint of a concentration-inhibition curve. In the case of `N#Cc1ccc(N2CCN(C(=O)c3ccnc(OCC4c5ccccc5CN4c4cn[nH]c(=O)c4C(F)(F)F)n3)CC2)nc1` (centres unmarked) [Example 383, 6-(4-(2-((2-(6-Oxo-5-(trifluoromethyl)-1,6-dihydropyridazin-4-yl)isoindolin-1-yl)methoxy)pyrimidine-4-carbonyl)piperazin-1-yl)nicotinonitrile], the IC50 is below 100 nM. To `O=C(c1cncc(OC[C@@H]2c3ccccc3CN2c2cn[nH]c(=O)c2C(F)(F)F)c1)N1CCN(c2ccc(C(F)(F)F)cn2)CC1` [Example 384, (S)-4-(Trifluoromethyl)-5-(1-(((5-(4-(5-(trifluoromethyl)pyridin-2-yl)piperazine-1-carbonyl)pyridin-3-yl)oxy)methyl)isoindolin-2-yl)pyridazin-3(2H)-one] belongs below 100 nM. Consider `O=C(c1cncc(OC[C@H]2c3ccccc3CN2c2cn[nH]c(=O)c2C(F)(F)F)c1)N1CCN(c2ccc(C(F)(F)F)cn2)CC1` [Example 385, (R)-4-(Trifluoromethyl)-5-(1-(((5-(4-(5-(trifluoromethyl)pyridin-2-yl)piperazine-1-carbonyl)pyridin-3-yl)oxy)methyl)isoindolin-2-yl)pyridazin-3(2H)-one], for which the IC50 fell in the range of 100 to 1000 nM. In the case of `O=C(c1cncc(OC[C@@H]2c3ccccc3CN2c2cn[nH]c(=O)c2C(F)(F)F)c1)N1CCN(c2ccc(F)cn2)CC1` [Example 386, (5)-5-(1-(((5-(4-(5-Fluoropyridin-2-yl)piperazine-1-carbonyl)pyridin-3-yl)oxy)methyl)isoindolin-2-yl)-4-(trifluoromethyl)pyridazin-3(2H)-one] it was below 100 nM. The compound `O=C(c1cncc(OC[C@H]2c3ccccc3CN2c2cn[nH]c(=O)c2C(F)(F)F)c1)N1CCN(c2ccc(F)cn2)CC1` [Example 387, (R)-5-(1-(((5-(4-(5-Fluoropyridin-2-yl)piperazine-1-carbonyl)pyridin-3-yl)oxy)methyl)isoindolin-2-yl)-4-(trifluoromethyl)pyridazin-3(2H)-one] yielded an IC50 of at least 1000 nM.

In turn, `O=C(c1cncc(OC[C@@H]2c3ccccc3CN2c2cn[nH]c(=O)c2C(F)(F)F)c1)N1CCN(c2ccc(Cl)cn2)CC1` [Example 388, (S)-5-(1-(((5-(4-(5-Chloropyridin-2-yl)piperazine-1-carbonyl)pyridin-3-yl)oxy)methyl)isoindolin-2-yl)-4-(trifluoromethyl)pyridazin-3(2H)-one] showed an IC50 below 100 nM. For the compound `O=C(c1cncc(OC[C@H]2c3ccccc3CN2c2cn[nH]c(=O)c2C(F)(F)F)c1)N1CCN(c2ccc(Cl)cn2)CC1` [Example 389, (R)-5-(1-(((5-(4-(5-Chloropyridin-2-yl)piperazine-1-carbonyl)pyridin-3-yl)oxy)methyl)isoindolin-2-yl)-4-(trifluoromethyl)pyridazin-3(2H)-one], the IC50 fell in the range of 100 to 1000 nM. For the compound `O=C(c1cccc(OC[C@@H]2c3ccccc3CN2c2cn[nH]c(=O)c2C(F)(F)F)c1)N1CCN(c2ncc(C(F)(F)F)cn2)CC1` [Example 390, (S)-4-(Trifluoromethyl)-5-(1-((3-(4-(5-(trifluoromethyl)pyrimidin-2-yl)piperazine-1-carbonyl)phenoxy)methyl)isoindolin-2-yl)pyridazin-3(2H)-one], the IC50 is below 100 nM.

Turning to `O=C(c1cccc(OC[C@H]2c3ccccc3CN2c2cn[nH]c(=O)c2C(F)(F)F)c1)N1CCN(c2ncc(C(F)(F)F)cn2)CC1` [Example 391, (R)-4-(Trifluoromethyl)-5-(1-((3-(4-(5-(trifluoromethyl)pyrimidin-2-yl)piperazine-1-carbonyl)phenoxy)methyl)isoindolin-2-yl)pyridazin-3(2H)-one], the IC50 was at least 1000 nM. On to `O=C(c1cncc(OC[C@@H]2c3ccccc3CN2c2cn[nH]c(=O)c2C(F)(F)F)c1)N1CCN(c2ncc(C(F)(F)F)cn2)CC1` [Example 392, (S)-4-(Trifluoromethyl)-5-(1-(((5-(4-(5-(trifluoromethyl)pyrimidin-2-yl)piperazine-1-carbonyl)pyridin-3-yl)oxy)methyl)isoindolin-2-yl)pyridazin-3(2H)-one], for which the IC50 was below 100 nM. In turn, `O=C(c1cncc(OC[C@H]2c3ccccc3CN2c2cn[nH]c(=O)c2C(F)(F)F)c1)N1CCN(c2ncc(C(F)(F)F)cn2)CC1` [Example 393, (R)-4-(Trifluoromethyl)-5-(1-(((5-(4-(5-(trifluoromethyl)pyrimidin-2-yl)piperazine-1-carbonyl)pyridin-3-yl)oxy)methyl)isoindolin-2-yl)pyridazin-3(2H)-one] came in with an IC50 of 100 to 1000 nM.

For the compound `N#Cc1ccc(NCCC(=O)Nc2cccc(OCC3c4ccccc4CN3c3cn[nH]c(=O)c3C(F)(F)F)c2)nc1` (centres unmarked) [Example 394, 3-((5-Cyanopyridin-2-yl)amino)-N-(3-((2-(6-oxo-5-(trifluoromethyl)-1,6-dihydropyridazin-4-yl)isoindolin-1-yl)methoxy)phenyl)propanamide], the IC50 was below 100 nM. To `N#Cc1cnc(N2CCN(C(=O)c3cncc(OC[C@@H]4c5ccccc5CN4c4cn[nH]c(=O)c4C(F)(F)F)c3)CC2)nc1` [Example 395, (S)-2-(4-(5-((2-(6-Oxo-5-(trifluoromethyl)-1,6-dihydropyridazin-4-yl)isoindolin-1-yl)methoxy)nicotinoyl)piperazin-1-yl)pyrimidine-5-carbonitrile] belongs below 100 nM. In the case of `N#Cc1cnc(N2CCN(C(=O)c3cncc(OC[C@H]4c5ccccc5CN4c4cn[nH]c(=O)c4C(F)(F)F)c3)CC2)nc1` [Example 396, (R)-2-(4-(5-((2-(6-Oxo-5-(trifluoromethyl)-1,6-dihydropyridazin-4-yl)isoindolin-1-yl)methoxy)nicotinoyl)piperazin-1-yl)pyrimidine-5-carbonitrile] it was at least 1000 nM. To `N#Cc1ccc(N2CCN(C(=O)c3cccc(OCC4c5ncccc5CN4c4cn[nH]c(=O)c4C(F)(F)F)c3)CC2)nc1` (centres unmarked) [Example 397, 6-(4-(3-((6-(6-Oxo-5-(trifluoromethyl)-1,6-dihydropyridazin-4-yl)-6,7-dihydro-5H-pyrrolo[3,4-b]pyridin-7-yl)methoxy)benzoyl)piperazin-1-yl)nicotinonitrile] belongs below 100 nM.

Regarding `O=C(c1cccc(OCC2c3ccccc3CN2c2cn[nH]c(=O)c2C(F)(F)F)c1)N1CCn2ncnc2C1` (centres unmarked) [Example 398, 5-(1-((3-(5,6,7,8-Tetrahydro-[1,2,4]triazolo[1,5-a]pyrazine-7-carbonyl)phenoxy)methyl)isoindolin-2-yl)-4-(trifluoromethyl)pyridazin-3(2H)-one], the IC50 was below 100 nM. To `O=C(c1cccc(OCC2c3ccccc3CN2c2cn[nH]c(=O)c2C(F)(F)F)c1)N1CCn2nncc2C1` (centres unmarked) [Example 399, 5-(1-((3-(4,5,6,7-Tetrahydro-[1,2,3]triazolo[1,5-a]pyrazine-5-carbonyl)phenoxy)methyl)isoindolin-2-yl)-4-(trifluoromethyl)pyridazin-3(2H)-one] belongs 100 to 1000 nM; to `N#Cc1ccc(N2CCN(C(=O)c3ccc(OCc4cccc5c4CN(c4cn[nH]c(=O)c4C(F)(F)F)C5)cc3)CC2)nc1` [Example 400], below 100 nM; to `N#Cc1ccc(N2CCN(C(=O)c3cccc(OCCc4cccc5c4CN(c4cn[nH]c(=O)c4C(F)(F)F)C5)c3)CC2)nc1` [Example 401, 6-(4-(3-(2-(2-(6-Oxo-5-(trifluoromethyl)-1,6-dihydropyridazin-4-yl)isoindolin-4-yl)ethoxy)benzoyl)piperazin-1-yl)nicotinonitrile], below 100 nM. In the case of `N#Cc1ccc(N2CCN(C(=O)c3ccc(OCCc4cccc5c4CN(c4cn[nH]c(=O)c4C(F)(F)F)C5)cc3)CC2)nc1` [Example 402, 6-(4-(4-(2-(2-(6-Oxo-5-(trifluoromethyl)-1,6-dihydropyridazin-4-yl)isoindolin-4-yl)ethoxy)benzoyl)piperazin-1-yl)nicotinonitrile] it was below 100 nM. As for `Cc1ccc(N2CCN(C(=O)c3cccc(OCC4c5ccccc5CN4c4cn[nH]c(=O)c4C(F)(F)F)c3)CC2)nc1` (centres unmarked) [Example 403, 5-(1-((3-(4-(5-Methylpyridin-2-yl)piperazine-1-carbonyl)phenoxy)methyl)isoindolin-2-yl)-4-(trifluoromethyl)pyridazin-3(2H)-one], the IC50 was below 100 nM. To `O=C(c1cccc(OCC2c3ccccc3CN2c2cn[nH]c(=O)c2C(F)(F)F)c1)N1CCn2nccc2C1` (centres unmarked) [Example 404, 5-(1-((3-(4,5,6,7-Tetrahydropyrazolo[1,5-a]pyrazine-5-carbonyl)phenoxy)methyl)isoindolin-2-yl)-4-(trifluoromethyl)pyridazin-3(2H)-one] belongs 100 to 1000 nM. The compound `CC(=O)N1CCN(C(=O)c2cccc(OCC3c4ccccc4CN3c3cn[nH]c(=O)c3C(F)(F)F)c2)CC1` (centres unmarked) [Example 405, 5-(1-((3-(4-Acetylpiperazine-1-carbonyl)phenoxy)methyl)isoindolin-2-yl)-4-(trifluoromethyl)pyridazin-3(2H)-one] displayed an IC50 below 100 nM. In the case of `CC(=O)N1CCN(C(=O)c2cccc(OC[C@H]3c4ccccc4CN3c3cn[nH]c(=O)c3C(F)(F)F)c2)CC1` [Example 406, (R)-5-(1-((3-(4-Acetylpiperazine-1-carbonyl)phenoxy)methyl)isoindolin-2-yl)-4-(trifluoromethyl)pyridazin-3(2H)-one], the IC50 is at least 1000 nM.

Take `CC(=O)N1CCN(C(=O)c2cccc(OC[C@@H]3c4ccccc4CN3c3cn[nH]c(=O)c3C(F)(F)F)c2)CC1` [Example 407, (S)-5-(1-((3-(4-Acetylpiperazine-1-carbonyl)phenoxy)methyl)isoindolin-2-yl)-4-(trifluoromethyl)pyridazin-3(2H)-one]: the IC50 is below 100 nM.

`N#Cc1ccc(N2CCN(C(=O)CCCOCC3c4ccccc4CN3c3cn[nH]c(=O)c3C(F)(F)F)CC2)nc1` (centres unmarked) [Example 408, 6-(4-(4-((2-(6-Oxo-5-(trifluoromethyl)-1,6-dihydropyridazin-4-yl)isoindolin-1-yl)methoxy)butanoyl)piperazin-1-yl)nicotinonitrile]: the IC50 was below 100 nM.
